The subject of test [1] is pancreatic cancer cells (Mia Paca-2). Nature of the test: Evaluation of the pharmacological efficacy of gemcitabine using a microfluidic chip (spread range of cancer cells). In kind it is cell-based. The protocol:
In order to evaluate the efficacy of an anticancer medicine using a microfluidic chip, pancreatic cancer cells (Mia Paca-2, ATCC) were seeded into a microfluidic chip using the same method as in Example 2. Secondarily, vascular cells (HUVEC, purchased from ATCC) were seeded. Once the cells were confirmed to be attached (day 0: cell seeding date), gemcitabine (Eli Lilly and Company, USA) was administered 3 days later to measure the spread range of the cancer cells. As shown in FIGS. 20A to 20C, the growth and development of cells were observed from the time of cell seeding (day 0) to the 7th day after the drug treatment (day 3). For observation of the cells, an optical microscope image (EVOS, LifeScience, 100 magnification) and a fluorescence microscope image (EVOS, LifeScience, 100 magnification) were superposed. FIGS. 20B and 20C show the results of observation of the cell development using an optical microscope and a fluorescence microscope. The eight images of FIG. 20B, labeled as normal cultures, were those treated with DMSO at day 3 and observed up to day 7. The eight pictures of FIG. 20C, labeled drug treatment, were those treated with gemcitabine on day 3 and observed up to day 7. FIG. 20A is a graph in which the growth width of the cancer cells was statistically quantified from FIGS. 20B and 20C using an Origin […] […]

The test system of a further test is lung cancer cells (A549). Nature of the test: Evaluation of the pharmacological efficacy of an MMP-1 inhibitor using a microfluidic chip (lung cancer cell travel distance, vascular cell migration area). In kind it is cell-based. The protocol: In order to evaluate the efficacy of an anticancer medicine using a microfluidic chip, lung cancer cells (A549, ATCC) were seeded into a microfluidic chip using the same method as in Example 1. Secondarily, vascular cells were seeded (day 0).

Where [2] appears, read: A549 with vascular cells in microfluidic chip, inhibitor given 1 day after seeding, increasing concentration (10 μM, 50 μM, 100 μM).

For `Nc1ccn([C@@H]2O[C@H](CO)[C@@H](O)C2(F)F)c(=O)n1` [gemcitabine, 4-amino-1-(2-deoxy-2,2-difluoro-β-D-erythro-pentofuranosyl)pyrimidin-2(1H)-on], the “distribution area of the cancer cells” value in test [1] (Mia Paca-2 co-seeded with HUVEC in microfluidic chip, drug on day 3, observed up to day 7, compared with cells not treated with gemcitabine (DMSO)) is reported as “decreased”. Moreover, the “growth of pancreatic cancer cells” value in test [1] (Mia Paca-2 in microfluidic chip, gemcitabine on day 3, observed up to day 7) was “inhibits the growth of pancreatic cancer cells”.

As for `CNC(=O)[C@H](Cc1c[nH]c2ccccc12)NC(=O)[C@@H](CC(=O)NO)CC(C)C` [MMP-1 inhibitor], the “metastatic process of lung cancer cells” value in the test on lung cancer cells (A549) (A549 cultured in the cell culture device (microfluidic chip)) is “inhibits the metastatic process of lung cancer cells”. In the test with lung cancer cells (A549) (setting [2]), the “migration area of the vascular cells” value is given as “reduced” and the “travel distance of the lung cancer cells” value is “gradually reduced”.

The record behind these values is US11692160B2, “Microfluidic chip, three-dimensional channel structure, cell culture method using same, and activity evaluation method of bioactive substance using same” (THE ASAN FOUNDATION, priority 2016, dated 2023).
